Numbered stars: 1 amine (or outer) side, 2 acyl side, 3 side chain; on linkers, the order of the positions; unused ones are H or OH. Square brackets hold non-standard residues; d marks the D form. Side chains are listed from the residue outwards. Peptide text beside a SMILES is read from it. * marks the point of attachment. C18 diacid = O=C(O)CCCCCCCCCCCCCCCCC(=O)*; αMePhe(2-F) = C[C@](N)(Cc1ccccc1F)C(=O)O; γGlu = O=C(O)[C@H](CCC(=O)[*:2])N[*:1]; AEEA = NCCOCCOCC(=O)O; Aib = CC(C)(N)C(=O)O
What was measured:
[1] = target: T1, gastric inhibitory peptide receptor (GIPR) (Homo sapiens, UniProt P48546); assay: cAMP pharmacological functional assay in presence of casein, hGIPR; type: cell-based; conditions: HEK293 cells expressing hGIPR, 0.1% Casein, geometric mean; read-out: hGIPR cAMP Rel EC50 nM (SEM, n)
T1 sequence (P48546 22-466): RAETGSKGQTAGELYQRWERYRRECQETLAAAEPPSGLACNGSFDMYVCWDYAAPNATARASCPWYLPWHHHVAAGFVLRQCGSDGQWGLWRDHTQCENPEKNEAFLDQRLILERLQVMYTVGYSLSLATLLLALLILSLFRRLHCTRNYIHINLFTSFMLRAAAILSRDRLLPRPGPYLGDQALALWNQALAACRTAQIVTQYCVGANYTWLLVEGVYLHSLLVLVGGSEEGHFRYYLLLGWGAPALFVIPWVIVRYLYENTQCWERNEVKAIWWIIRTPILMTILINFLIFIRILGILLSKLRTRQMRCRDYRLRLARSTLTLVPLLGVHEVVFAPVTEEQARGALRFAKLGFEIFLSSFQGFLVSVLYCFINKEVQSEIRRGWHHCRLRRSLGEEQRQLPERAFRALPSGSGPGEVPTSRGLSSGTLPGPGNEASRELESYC

[2] = target: human GLP-1 receptor (GLP-1R) (Homo sapiens, UniProt P43220); assay: cAMP pharmacological functional assay in presence of casein, hGLP-1R; type: cell-based; conditions: HEK293 cells expressing hGLP-1R, 0.1% Casein, geometric mean; read-out: hGLP1R cAMP Rel EC50 nM (SEM, n)
[3] = target: T2, human GIP receptor (Homo sapiens, UniProt P48546); assay: [125I]-GIP binding (SPA), human GIP receptor; conditions: read-out: hGIPR Ki, nM (SEM, n)
T2 construct: expressed in transfected cells; crude membranes
T2 sequence (P48546 22-466): T1 sequence (P48546 22-466)

[4] = target: human GLP-1R (Homo sapiens, UniProt P43220); assay: [125I]-GLP-1 binding (SPA), human GLP-1 receptor; design: expressed in transfected cells; crude membranes; conditions: read-out: hGLP1R Ki, (nM) (SEM, n)
In short: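 Assay buffer: HEPES 25 mM, pH 7.4, CaCl2 2.5 mM, MgCl2 1 mM, with EDTA-free protease inhibitors. Receptor came from crude cell membranes prepared by homogenization and centrifugation at 4° C. IC50s came from four-parameter fits (maximum, minimum, IC50, Hill slope) and were expressed as Ki geometric means with SEM.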

[5] = target: T3, human Gcg receptor (Homo sapiens, UniProt P47871); assay: [125I]-Glucagon binding (SPA), human Gcg receptor; conditions: read-out: hGLcgR Ki, nM (SEM, n)
T3 construct: expressed in transfected cells; crude membranes
In short: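 Scintillation counts are taken after membranes and WGA beads incubate and settle for 12 hours at room temperature. Buffer is 25 mM HEPES, pH 7.4, with CaCl2, MgCl2, bacitracin and Tween-20. Ki values, from four-parameter IC50 fits, are geometric means over independent days.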

Sequence of human GLP-1 receptor (GLP-1R) (P43220 24-463): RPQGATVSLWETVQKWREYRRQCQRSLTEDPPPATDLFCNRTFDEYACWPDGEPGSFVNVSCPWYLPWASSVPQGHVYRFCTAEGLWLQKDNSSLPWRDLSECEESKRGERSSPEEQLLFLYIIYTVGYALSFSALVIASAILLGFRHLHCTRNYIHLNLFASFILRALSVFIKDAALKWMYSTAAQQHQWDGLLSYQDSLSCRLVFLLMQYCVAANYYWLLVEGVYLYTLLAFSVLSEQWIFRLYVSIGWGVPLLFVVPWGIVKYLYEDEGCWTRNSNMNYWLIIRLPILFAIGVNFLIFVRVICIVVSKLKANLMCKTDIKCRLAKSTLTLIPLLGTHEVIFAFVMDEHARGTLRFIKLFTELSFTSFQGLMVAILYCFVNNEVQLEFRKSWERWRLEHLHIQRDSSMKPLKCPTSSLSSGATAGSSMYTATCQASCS
Sequence of human GLP-1R (P43220 24-463): as above
T3 sequence (P47871 26-477): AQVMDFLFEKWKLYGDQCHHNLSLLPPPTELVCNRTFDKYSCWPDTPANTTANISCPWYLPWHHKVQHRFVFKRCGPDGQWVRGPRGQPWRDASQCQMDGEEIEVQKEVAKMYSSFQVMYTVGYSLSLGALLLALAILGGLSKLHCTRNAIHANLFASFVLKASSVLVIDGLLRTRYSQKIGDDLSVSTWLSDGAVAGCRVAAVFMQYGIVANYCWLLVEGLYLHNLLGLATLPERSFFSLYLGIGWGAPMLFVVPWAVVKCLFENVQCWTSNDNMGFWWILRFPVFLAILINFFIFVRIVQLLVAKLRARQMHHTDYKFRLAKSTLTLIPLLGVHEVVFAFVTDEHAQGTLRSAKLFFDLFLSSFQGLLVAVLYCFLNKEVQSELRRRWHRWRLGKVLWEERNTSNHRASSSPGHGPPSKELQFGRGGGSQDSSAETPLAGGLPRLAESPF

How did the EC50 [1] turn out when `CC[C@H](C)[C@H](NC(=O)[C@H](CC(C)C)NC(=O)[C@H](Cc1ccc(O)cc1)NC(=O)[C@H](CCC(=O)O)NC(=O)[C@@H](NC(=O)[C@H](Cc1ccccc1)NC(=O)[C@H](CCC(=O)O)NC(=O)C(C)(C)NC(=O)[C@H](CCC(N)=O)NC(=O)[C@H](C)NC(=O)[C@H](CCCCNC(=O)COCCOCCNC(=O)COCCOCCNC(=O)CC[C@H](NC(=O)CCCCCCCCCCCCCCCCC(=O)O)C(=O)O)NC(=O)[C@H](CCCCN)NC(=O)[C@H](CC(=O)O)NC(=O)[C@H](CC(C)C)NC(=O)[C@H](CC(C)C)NC(=O)[C@@H](NC(=O)[C@H](CO)NC(=O)[C@H](Cc1ccc(O)cc1)NC(=O)[C@H](CC(=O)O)NC(=O)[C@H](CO)NC(=O)[C@@H](NC(=O)[C@](C)(Cc1ccccc1F)NC(=O)[C@@H](NC(=O)CNC(=O)[C@H](CCC(=O)O)NC(=O)C(C)(C)NC(=O)[C@@H](N)Cc1ccc(O)cc1)[C@@H](C)O)[C@@H](C)O)[C@@H](C)CC)[C@@H](C)CC)C(=O)N[C@@H](CCC(=O)O)C(=O)NCC(=O)NCC(=O)N1CCC[C@H]1C(=O)N[C@@H](CO)C(=O)N[C@@H](CO)C(=O)NCC(N)=O` [Example 312] (H-Y[Aib]EGT[αMePhe(2-F)]TSDYSILLDKK([AEEA-AEEA-γGlu-C18 diacid])AQ[Aib]EFIEYLIEGGPSSG-NH2) was run?
The EC50 was 0.0207 nM.

What about the EC50 [2] of the same molecule?
Its EC50 is 0.0262 nM.

What about the Ki [3] of the same molecule?
Its Ki is 0.0348 nM.

And the Ki [4]?
The Ki was 1.63 nM.

What about the Ki [5] of the same molecule?
The Ki was 106 nM.

Which results are given for `CC[C@H](C)[C@H](NC(=O)[C@H](CC(C)C)NC(=O)[C@H](Cc1ccc(O)cc1)NC(=O)[C@H](CCC(=O)O)NC(=O)[C@@H](NC(=O)[C@H](Cc1ccccc1)NC(=O)[C@H](C)NC(=O)C(C)(C)NC(=O)[C@H](CCC(N)=O)NC(=O)[C@H](C)NC(=O)[C@H](CCCCNC(=O)COCCOCCNC(=O)COCCOCCNC(=O)CC[C@H](NC(=O)CCCCCCCCCCCCCCCCC(=O)O)C(=O)O)NC(=O)[C@H](CCCCN)NC(=O)[C@H](CC(=O)O)NC(=O)[C@H](CC(C)C)NC(=O)[C@H](CC(C)C)NC(=O)[C@@H](NC(=O)[C@H](CO)NC(=O)[C@H](Cc1ccc(O)cc1)NC(=O)[C@H](CC(=O)O)NC(=O)[C@H](CO)NC(=O)[C@@H](NC(=O)[C@](C)(Cc1ccccc1F)NC(=O)[C@@H](NC(=O)CNC(=O)[C@H](CCC(=O)O)NC(=O)C(C)(C)NC(=O)[C@@H](N)Cc1ccc(O)cc1)[C@@H](C)O)[C@@H](C)O)[C@@H](C)CC)[C@@H](C)CC)C(=O)N[C@@H](C)C(=O)NCC(=O)NCC(=O)N1CCC[C@H]1C(=O)N[C@@H](CO)C(=O)N[C@@H](CO)C(=O)NCC(N)=O` [Example 313] (H-Y[Aib]EGT[αMePhe(2-F)]TSDYSILLDKK([AEEA-AEEA-γGlu-C18 diacid])AQ[Aib]AFIEYLIAGGPSSG-NH2)?
EC50 [1]: 0.0233 nM; EC50 [2]: 0.0388 nM; Ki [3]: 0.0261 nM; Ki [4]: 0.815 nM; Ki [5]: 27.6 nM

For `CC[C@H](C)[C@H](NC(=O)[C@H](CC(C)C)NC(=O)[C@H](Cc1ccc(O)cc1)NC(=O)[C@H](CCC(=O)O)NC(=O)[C@@H](NC(=O)[C@H](Cc1ccccc1)NC(=O)[C@H](CCC(=O)O)NC(=O)C(C)(C)NC(=O)[C@H](CCC(N)=O)NC(=O)[C@H](C)NC(=O)[C@H](CCCCNC(=O)COCCOCCNC(=O)COCCOCCNC(=O)CC[C@H](NC(=O)CCCCCCCCCCCCCCCCC(=O)O)C(=O)O)NC(=O)[C@H](CCCCN)NC(=O)[C@H](CC(=O)O)NC(=O)[C@H](CC(C)C)NC(=O)[C@H](CC(C)C)NC(=O)[C@@H](NC(=O)[C@H](CO)NC(=O)[C@H](Cc1ccc(O)cc1)NC(=O)[C@H](CC(=O)O)NC(=O)[C@H](CO)NC(=O)[C@@H](NC(=O)[C@](C)(Cc1ccccc1F)NC(=O)[C@@H](NC(=O)CNC(=O)[C@H](CCC(=O)O)NC(=O)C(C)(C)NC(=O)[C@@H](N)Cc1ccc(O)cc1)[C@@H](C)O)[C@@H](C)O)[C@@H](C)CC)[C@@H](C)CC)C(=O)N[C@@H](C)C(=O)NCC(=O)NCC(=O)N1CCC[C@H]1C(=O)N[C@@H](CO)C(=O)N[C@@H](CO)C(=O)NCC(N)=O` [Example 314] (H-Y[Aib]EGT[αMePhe(2-F)]TSDYSILLDKK([AEEA-AEEA-γGlu-C18 diacid])AQ[Aib]EFIEYLIAGGPSSG-NH2), which EC50 [1] is on record?
The EC50 was 0.029 nM.

What about the EC50 [2] of the same molecule?
The EC50 was 0.029 nM.

And the Ki [3]?
Its Ki is 0.027 nM.

And the Ki [4]?
The Ki was 0.717 nM.

And the Ki [5]?
The Ki was 116 nM.

How did the EC50 [1] turn out when `CC[C@H](C)[C@H](NC(=O)[C@H](CC(C)C)NC(=O)[C@H](Cc1ccc(O)cc1)NC(=O)[C@H](CCC(=O)O)NC(=O)[C@@H](NC(=O)[C@H](Cc1ccccc1)NC(=O)[C@H](CC(=O)O)NC(=O)C(C)(C)NC(=O)[C@H](CCC(N)=O)NC(=O)[C@H](C)NC(=O)[C@H](CCCCNC(=O)COCCOCCNC(=O)COCCOCCNC(=O)CC[C@H](NC(=O)CCCCCCCCCCCCCCCCC(=O)O)C(=O)O)NC(=O)[C@H](CCCCN)NC(=O)[C@H](CC(=O)O)NC(=O)[C@H](CC(C)C)NC(=O)[C@H](CC(C)C)NC(=O)[C@@H](NC(=O)[C@H](CO)NC(=O)[C@H](Cc1ccc(O)cc1)NC(=O)[C@H](CC(=O)O)NC(=O)[C@H](CO)NC(=O)[C@@H](NC(=O)[C@H](Cc1ccccc1)NC(=O)[C@@H](NC(=O)CNC(=O)[C@H](CCC(=O)O)NC(=O)C(C)(C)NC(=O)[C@@H](N)Cc1ccc(O)cc1)[C@@H](C)O)[C@@H](C)O)[C@@H](C)CC)[C@@H](C)CC)C(=O)N[C@@H](CCC(=O)O)C(=O)NCC(=O)NCC(=O)N1CCC[C@H]1C(=O)N[C@@H](CO)C(=O)N[C@@H](CO)C(=O)NCC(N)=O` [Example 320] (H-Y[Aib]EGTFTSDYSILLDKK([AEEA-AEEA-γGlu-C18 diacid])AQ[Aib]DFIEYLIEGGPSSG-NH2; N-terminus assumed) was run?
The EC50 was 0.161 nM.

And the EC50 [2]?
Its EC50 is 0.397 nM.

And the Ki [3]?
Its Ki is 0.136 nM.

What about the Ki [4] of the same molecule?
The Ki was 5.17 nM.

And the Ki [5]?
The Ki was > 1040 nM.

What does the source list for `CC[C@H](C)[C@H](NC(=O)[C@H](CC(C)C)NC(=O)[C@H](Cc1ccc(O)cc1)NC(=O)[C@H](CCC(=O)O)NC(=O)[C@@H](NC(=O)[C@H](Cc1ccccc1)NC(=O)[C@@H](NC(=O)C(C)(C)NC(=O)[C@H](CCC(N)=O)NC(=O)[C@H](C)NC(=O)[C@H](CCCCNC(=O)COCCOCCNC(=O)COCCOCCNC(=O)CC[C@H](NC(=O)CCCCCCCCCCCCCCCCC(=O)O)C(=O)O)NC(=O)[C@H](CCCCN)NC(=O)[C@H](CC(=O)O)NC(=O)[C@H](CC(C)C)NC(=O)[C@H](CC(C)C)NC(=O)[C@@H](NC(=O)[C@H](CO)NC(=O)[C@H](Cc1ccc(O)cc1)NC(=O)[C@H](CC(=O)O)NC(=O)[C@H](CO)NC(=O)[C@@H](NC(=O)[C@H](Cc1ccccc1)NC(=O)[C@@H](NC(=O)CNC(=O)[C@H](CCC(=O)O)NC(=O)C(C)(C)NC(=O)[C@@H](N)Cc1ccc(O)cc1)[C@@H](C)O)[C@@H](C)O)[C@@H](C)CC)[C@@H](C)O)[C@@H](C)CC)C(=O)N[C@@H](CCC(=O)O)C(=O)NCC(=O)NCC(=O)N1CCC[C@H]1C(=O)N[C@@H](CO)C(=O)N[C@@H](CO)C(=O)NCC(N)=O` [Example 321] (H-Y[Aib]EGTFTSDYSILLDKK([AEEA-AEEA-γGlu-C18 diacid])AQ[Aib]TFIEYLIEGGPSSG-NH2)?
EC50 [1]: 0.0752 nM; EC50 [2]: 0.204 nM; Ki [3]: 0.064 nM; Ki [4]: 4.2 nM; Ki [5]: 770 nM

With `CC[C@H](C)[C@H](NC(=O)[C@H](CC(C)C)NC(=O)[C@H](Cc1ccc(O)cc1)NC(=O)[C@H](CCC(=O)O)NC(=O)[C@@H](NC(=O)[C@H](Cc1ccccc1)NC(=O)[C@H](Cc1c[nH]cn1)NC(=O)C(C)(C)NC(=O)[C@H](CCC(N)=O)NC(=O)[C@H](C)NC(=O)[C@H](CCCCNC(=O)COCCOCCNC(=O)COCCOCCNC(=O)CC[C@H](NC(=O)CCCCCCCCCCCCCCCCC(=O)O)C(=O)O)NC(=O)[C@H](CCCCN)NC(=O)[C@H](CC(=O)O)NC(=O)[C@H](CC(C)C)NC(=O)[C@H](CC(C)C)NC(=O)[C@@H](NC(=O)[C@H](CO)NC(=O)[C@H](Cc1ccc(O)cc1)NC(=O)[C@H](CC(=O)O)NC(=O)[C@H](CO)NC(=O)[C@@H](NC(=O)[C@H](Cc1ccccc1)NC(=O)[C@@H](NC(=O)CNC(=O)[C@H](CCC(=O)O)NC(=O)C(C)(C)NC(=O)[C@@H](N)Cc1ccc(O)cc1)[C@@H](C)O)[C@@H](C)O)[C@@H](C)CC)[C@@H](C)CC)C(=O)N[C@@H](CCC(=O)O)C(=O)NCC(=O)NCC(=O)N1CCC[C@H]1C(=O)N[C@@H](CO)C(=O)N[C@@H](CO)C(=O)NCC(N)=O` [Example 322] (H-Y[Aib]EGTFTSDYSILLDKK([AEEA-AEEA-γGlu-C18 diacid])AQ[Aib]HFIEYLIEGGPSSG-NH2) as the molecule, how does the EC50 [1] read?
The EC50 was 0.146 nM.

And the EC50 [2]?
Its EC50 is 0.711 nM.

What about the Ki [3] of the same molecule?
Its Ki is 0.175 nM.

What about the Ki [4] of the same molecule?
The Ki was 2.31 nM.

And the Ki [5]?
Its Ki is 1030 nM.

From patent publication US12252524B2, “GIP/GLP1 co-agonist compounds” (Eli Lilly and Company, priority 2018, dated 2025)
